The values that follow come from PMC6199279, “Design of Peptoid-peptide Macrocycles to Inhibit the β-catenin TCF Interaction in Prostate Cancer” (Nature Communications, 2018).

Data set [1] concerns TOP-Flash Wnt luciferase reporter. The data set is described as follows: TOP-Flash Wnt luciferase reporter assay in LNCaP-abl cells. Format: cell-based. The settings on record: for Effect of control Wnt inhibitors on the Wnt luciferase reporter: dose response, commercially available inhibitors (Supplementary Fig. 5). The text has this: (§1) Using a TOP-Flash Wnt luciferase reporter, we tested the 12 oligomers identified from in silico modeling for inhibitory activity (Fig. 2b). […] We also employed a 3 × -Androgen Response Element (ARE) luciferase reporter to measure the effect on AR activity. […] As additional controls, we obtained previously developed, commercially available Wnt inhibitors and tested them in the Wnt luciferase assay (Supplementary Fig. 5).
(§2) We next characterized the dose response curves for compound 13 in the Wnt and AR luciferase reporters. The linear version of 13 (linear 13: NH2-|N-mpp, N-dmp, N-ipp, N-Smpe, N-Smpe, D-Ala|-OH) was used as a control compound. […] To test direct binding, we pre-formed dynamic light scattering (DLS) with β-catenin in the presence of vehicle, compound 13, and α-cyclodextrin. […] HEK293 cells were transiently transfected with a plasmid expressing full length, myc-tagged TCF4. After 48 h treatment with either vehicle (DMSO) or 10 µM 13, cells were lysed and myc-TCF4 protein was immunoprecipitated.
LNCaP-abl and LNCaP-95 cells were cultured in indicator free RPMI 1640 media (Life) supplemented with 10% charcoal stripped FBS, 1% pennicillin/streptomycin, and 1% L-Glutamine. HEK-293 Cells were cultured in DMEM media (Life) supplemented with 10%FBS and 1% pennicillin/streptomycin. A549 and U2OS cells were cultured in RPMI 1640 media (Life) and McCoy’s 5 A modified media (Life), respectively, both supplemented with 10%FBS and 1% pennicillin/streptomycin. LNCaP-abl, and LNCaP-95 cell lines were generous gifts from Z. Culig (Innsbruck Medical University, Austria) and J. Isaacs (Johns Hopkins University, Baltimore, MD), respectively. Cell lines were authenticated by STR profiling (Genetica Cell Line Testing; Burlington, NC). A549 and U2OS were purchased from ATCC (product numbers CCL-185 and HTB-96). Cell lines were routinely screened for mycoplasma. Luciferase assays were conducted using stably transfected TOP-flash and 3xARE LNCaP-abl cell lines. For the Wnt pathway, TOP-Flash LNCaP-abl cells were treated with 1 nM siAPC (a 1:1:1 mix of Ambion Silencer Silect siAPC RNA, ID#s s1433, s1434, s1435) for 24 h and seeded into 384-well plates at 5000 cells/well, followed by 24 h of treatment with compound. For the AR-pathway, 3xARE LNCaP-abl cells were seeded into 384-well plates at 5000 cells per well, treated for 48 h with compound, with the addition of R1881 for the final 8 h. Both were measured using the ONE-Glo detection kit (Promega) and data is standardized to CellTiter-Fluor (Promega) viability readings to account for potential variations in well to well cell number. Control Wnt inhibitors were purchased from Sigma with the exception of PRI-724 which was purchased from Selleckchem. Co-immunoprecipitation was carried out using HEK293 cells transfected with either myc-TCF (addgene #32738) or myc-TCF dominant negative (addgene #32739) followed by 48 h of treatment with compound. Cells were lysed using Triton lysis buffer and 1 mg total protein was incubated overnight at 4 C with 40 µl anti-cMyc magnetic beads (Thermo). Total protein concentration in cell lysates were determined using Pierce Rapid Gold BCA Protein Assay Kit (Thermo). The beads were washed 3× with lysis buffer then boiled in 2X sample loading dye. SDS-PAGE and western blotting were performed using anti-Myc (CST 2276) and anti-β-catenin (CST 8480). Both antibodies were diluted in blocking buffer 1:1000 and incubated overnight at 4 C with the membrane. […]

Details of data set [2]: method as in PMID 24019458. As to conditions: mouse xenograft experiments, direct tumor injection required; cited from earlier work.
The test system of data set [3] is AR luciferase reporter (3xARE). The data set is described as follows: 3x-Androgen Response Element (ARE) luciferase reporter assay in LNCaP-abl cells. In kind it is cell-based. The settings on record: 3xARE LNCaP-abl cells, 48 h compound, androgen-activated; read-out: IC50 for inhibition of the AR luciferase reporter.
From the text: as §1, §2
LNCaP-abl and LNCaP-95 cells were cultured in indicator free RPMI 1640 media (Life) supplemented with 10% charcoal stripped FBS, 1% pennicillin/streptomycin, and 1% L-Glutamine. HEK-293 Cells were cultured in DMEM media (Life) supplemented with 10%FBS and 1% pennicillin/streptomycin. A549 and U2OS cells were cultured in RPMI 1640 media (Life) and McCoy’s 5 A modified media (Life), respectively, both supplemented with 10%FBS and 1% pennicillin/streptomycin. LNCaP-abl, and LNCaP-95 cell lines were generous gifts from Z. Culig (Innsbruck Medical University, Austria) and J. Isaacs (Johns Hopkins University, Baltimore, MD), respectively. Cell lines were authenticated by STR profiling (Genetica Cell Line Testing; Burlington, NC). […] Both were measured using the ONE-Glo detection kit (Promega) and data is standardized to CellTiter-Fluor (Promega) viability readings to account for potential variations in well to well cell number. […] Total protein concentration in cell lysates were determined using Pierce Rapid Gold BCA Protein Assay Kit (Thermo). […]

Data set [4] deals with Wnt signaling in zebrafish embryos. As to conditions: 50 µl of 30 µM compound added at ~5.5 hpf, BIO added about 30 min later; eight fish per group.
Description: To evaluate the efficacy of 13 in vivo, we utilized a Danio rerio (zebrafish) model. […] To test this, BIO was added to zebrafish embryos at 6 hpf with and without 13 as described in Fig. 6a.
The zebrafish phenotypic assay was conducted using wild-type zebrafish embryos seeded into a 96-well round bottom plate at 4 hpf in 50 µl of Fish Water (60 mg/l sea salt, Instant Ocean, Blacksburg, VA, USA) supplemented with 1 mg per L Methylene Blue (Sigma-Aldrich). The embryos were not dechorionated. At 50% epiboly, roughly 5.5 hpf, 50 µl of 30 µM 13 or Linear 13 was added. About 30 min later at shield stage, 50 µl of 6 nM (3×) BIO was added. The embryos were then visualized for the presence of eyes and imaged at 30 hpf. Zebrafish embryos were randomly assigned to non-blinded treatment groups, none were excluded. Sample size was determined with a power calculation to achieve statistical significance (alpha = 0.05, beta = 0.2) if only 60% of the fish had developed eyes.
In data set [5] the target is T1, β-catenin (Homo sapiens, UniProt P35222).
T1 construct: His6-β-catenin armadillo domain, AA134-668; made in house; host or cells: E. coli BL21 DL3 (NEB)
T1 sequence (P35222 134-668): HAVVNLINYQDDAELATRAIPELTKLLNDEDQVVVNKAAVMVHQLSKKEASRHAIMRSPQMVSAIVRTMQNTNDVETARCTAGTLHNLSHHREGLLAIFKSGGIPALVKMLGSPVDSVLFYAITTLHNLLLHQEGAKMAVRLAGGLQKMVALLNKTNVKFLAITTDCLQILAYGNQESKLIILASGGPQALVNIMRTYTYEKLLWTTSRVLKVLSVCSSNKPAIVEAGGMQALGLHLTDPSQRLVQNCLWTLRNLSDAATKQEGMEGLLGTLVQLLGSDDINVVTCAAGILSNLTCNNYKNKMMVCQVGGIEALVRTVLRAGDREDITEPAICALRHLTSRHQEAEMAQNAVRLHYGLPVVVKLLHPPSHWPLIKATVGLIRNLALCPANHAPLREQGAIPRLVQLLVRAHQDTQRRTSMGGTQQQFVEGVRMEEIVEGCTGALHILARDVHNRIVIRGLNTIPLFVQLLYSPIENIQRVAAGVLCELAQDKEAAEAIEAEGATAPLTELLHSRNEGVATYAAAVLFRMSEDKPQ
Kind of data set: Dynamic light scattering of β-catenin. In kind it is binding. The settings on record: 10 µM compound vs 1% DMSO vehicle. Here is the method:
as §2

The structures appear in SMILES notation. Numbered stars: 1 amine (or outer) side, 2 acyl side, 3 side chain; on linkers, the order of the positions; unused ones are H or OH. Square brackets hold non-standard residues; d marks the D form. Peptide text beside a SMILES is read from it. N(2-(2-PhOPh)Et)Gly = O=C(O)CNCCc1ccccc1Oc1ccccc1; Gly(N-3,5-(OMe)2-Ph) = COc1cc(NCC(=O)O)cc(OC)c1; X1 = COc1ccc([C@H](C)N(CC(=O)[*:2])[*:1])cc1; N((CH2)3OiPr)Gly = CC(C)OCCCNCC(=O)O

In the case of `C[C@H]1[C@H]2N(C(=O)CN(C)N2C(=O)NCc2ccccc2)[C@@H](Cc2ccc(OP(=O)(O)O)cc2)C(=O)N1Cc1cccc2cccnc12` [PRI-724, reference compound], the “Effect of control Wnt inhibitors on the Wnt luciferase reporter” value in data set [1] is reported as “did inhibit the luciferase reporter”.
As for `CCc1ccc(-c2nc(CSCC(=O)NCCc3ccccc3)c(C)o2)cc1` [iCRT3, reference compound], the “Effect of control Wnt inhibitors on the Wnt luciferase reporter” value in data set [1] is listed as “did inhibit the luciferase reporter”. In data set [2], the Systemic stability result is given as “not systemically stable”.
As to `COc1ccc([C@H](C)N(CC(=O)N[C@H](C)C(=O)O)C(=O)CN(C(=O)CN(CCCOC(C)C)C(=O)CN(C(=O)CNCCc2ccccc2Oc2ccccc2)c2cc(OC)cc(OC)c2)[C@@H](C)c2ccc(OC)cc2)cc1` [linear 13, NH2-|N-mpp, N-dmp, N-ipp, N-Smpe, N-Smpe, D-Ala|-OH] (H-[N(2-(2-PhOPh)Et)Gly][Gly(N-3,5-(OMe)2-Ph)][N((CH2)3OiPr)Gly][X1][X1][dA]-OH), the IC50 in data set [3] worked out at 7.63 µM; in data set [1] (TOP-Flash LNCaP-abl cells, siAPC knockdown, 24 h compound, ± SD of three replicates, read-out: IC50 for Wnt luciferase inhibition), 3.27 µM. Further, the “Fish that developed eyes, BIO plus compound” value in data set [4] is 6/8.
`OC[C@H]1O[C@@H]2O[C@H]3[C@H](O)[C@@H](O)[C@@H](O[C@H]4[C@H](O)[C@@H](O)[C@@H](O[C@H]5[C@H](O)[C@@H](O)[C@@H](O[C@H]6[C@H](O)[C@@H](O)[C@@H](O[C@H]7[C@H](O)[C@@H](O)[C@@H](O[C@H]1[C@H](O)[C@H]2O)O[C@@H]7CO)O[C@@H]6CO)O[C@@H]5CO)O[C@@H]4CO)O[C@@H]3CO` [α-cyclodextrin, reference compound]: the “Shift in measured hydrodynamic radius of β-catenin (DLS)” value in data set [5] was “did not cause the same shift”.

As a reminder, the IC50 is the concentration that gives 50% inhibition.
